Converted amounts (≈) assume the structure as drawn.
Assays:
[1] = system: Fusarium solani; test: Antifungal activity against Fusarium solani NRRL-13414 after 72 hrs by broth microdilution method; assay type: functional; conditions: NRRL-13414, 72 h
[2] = system: Candida parapsilosis; test: Antifungal activity against Candida parapsilosis NRLL Y-12696 after 48 hrs by broth microdilution method; assay type: functional; conditions: Lodderomyces parapsilosis, NRLL Y-12696, 48 h
[3] = system: Nakaseomyces glabratus; test: Antifungal activity against clinical isolate Candida glabrata after 48 hrs by broth microdilution method; assay type: functional
[4] = system: Aspergillus parasiticus; test: Antifungal activity against Aspergillus parasiticus NRRL 465 after 72 hrs by broth microdilution method; assay type: functional; conditions: NRRL 465, 72 h
[5] = system: Pichia kudriavzevii; test: Antifungal activity against Candida krusei NRLL Y-7179 after 48 hrs by broth microdilution method; assay type: functional; conditions: NRLL Y-7179, 48 h
[6] = Cytotoxicity against mouse NIH/3T3 cells after 24 hrs by XTT assay; assay type: cell-based; conditions: NIH3T3, 24 h
[7] = system: [Candida] zeylanoides; test: Antifungal activity against Candida zeylanoides NRLL Y-1774 after 48 hrs by broth microdilution method; assay type: functional; conditions: Dujonia zeylanoides, NRLL Y-1774, 48 h
[8] = system: Aspergillus niger; test: Antifungal activity against Aspergillus niger ATCC-1094 after 72 hrs by broth microdilution method; assay type: functional; conditions: ATCC-1094, 72 h
[9] = system: Candida albicans; test: Antifungal activity against Candida albicans ATCC-90028 after 48 hrs by broth microdilution method; assay type: functional; conditions: ATCC-90028, 48 h
[10] = system: Candida tropicalis; test: Antifungal activity against Candida tropicalis NRLL Y-12968 after 48 hrs by broth microdilution method; assay type: functional; conditions: NRLL Y-12968, 48 h
[11] = system: Aspergillus flavus; test: Antifungal activity against Aspergillus flavus NRRL-980 after 72 hrs by broth microdilution method; assay type: functional; conditions: NRRL-980, 72 h
[12] = system: A549; test: Cytotoxicity against human A549 cells after 24 hrs by XTT assay; assay type: functional, cell-based; conditions: A549, 24 h

Row | MIC [1] | MIC [2] | MIC [3] | MIC [4] | MIC [5] | MIC [7] | MIC [8] | MIC [9] | MIC [10] | MIC [11] | SMILES | IC50 [6] | IC50 [12]
1 | 250 µg/mL (≈ 732 µM) | 250 µg/mL (≈ 732 µM) | 250 µg/mL (≈ 732 µM) | 250 µg/mL (≈ 732 µM) | 250 µg/mL (≈ 732 µM) | 250 µg/mL (≈ 732 µM) | 250 µg/mL (≈ 732 µM) | 250 µg/mL (≈ 732 µM) | 250 µg/mL (≈ 732 µM) | 250 µg/mL (≈ 732 µM) | Fc1ccc(/C=N/NC(=S)Nc2cccc3ccccc23)cc1F | > 500 µg/mL | 125 µg/mL (≈ 366 µM)
2 | 250 µg/mL (≈ 732 µM) | 250 µg/mL (≈ 732 µM) | 250 µg/mL (≈ 732 µM) | 250 µg/mL (≈ 732 µM) | 250 µg/mL (≈ 732 µM) | 250 µg/mL (≈ 732 µM) | 250 µg/mL (≈ 732 µM) | 250 µg/mL (≈ 732 µM) | 250 µg/mL (≈ 732 µM) | 250 µg/mL (≈ 732 µM) | Fc1ccc(/C=N/NC(=S)Nc2cccc3ccccc23)c(F)c1 | > 500 µg/mL | 31.2 µg/mL (≈ 91.5 µM)
3 | 250 µg/mL (≈ 732 µM) | 250 µg/mL (≈ 732 µM) | 250 µg/mL (≈ 732 µM) | 250 µg/mL (≈ 732 µM) | 250 µg/mL (≈ 732 µM) | 250 µg/mL (≈ 732 µM) | 250 µg/mL (≈ 732 µM) | 250 µg/mL (≈ 732 µM) | 250 µg/mL (≈ 732 µM) | 250 µg/mL (≈ 732 µM) | Fc1cc(F)cc(/C=N/NC(=S)Nc2cccc3ccccc23)c1 | > 500 µg/mL | 500 µg/mL (≈ 1460 µM)
4 | 250 µg/mL (≈ 696 µM) | 250 µg/mL (≈ 696 µM) | 250 µg/mL (≈ 696 µM) | 250 µg/mL (≈ 696 µM) | 250 µg/mL (≈ 696 µM) | 250 µg/mL (≈ 696 µM) | 250 µg/mL (≈ 696 µM) | 250 µg/mL (≈ 696 µM) | 250 µg/mL (≈ 696 µM) | 250 µg/mL (≈ 696 µM) | Fc1cc(F)c(/C=N/NC(=S)Nc2cccc3ccccc23)c(F)c1 | > 500 µg/mL | > 500 µg/mL
5 | 250 µg/mL (≈ 699 µM) | 250 µg/mL (≈ 699 µM) | 250 µg/mL (≈ 699 µM) | 250 µg/mL (≈ 699 µM) | 250 µg/mL (≈ 699 µM) | 250 µg/mL (≈ 699 µM) | 250 µg/mL (≈ 699 µM) | 250 µg/mL (≈ 699 µM) | 250 µg/mL (≈ 699 µM) | 250 µg/mL (≈ 699 µM) | Fc1cccc(Cl)c1/C=N/NC(=S)Nc1cccc2ccccc12 | > 500 µg/mL | 125 µg/mL (≈ 349 µM)
6 | 250 µg/mL (≈ 699 µM) | 250 µg/mL (≈ 699 µM) | 250 µg/mL (≈ 699 µM) | 250 µg/mL (≈ 699 µM) | 250 µg/mL (≈ 699 µM) | 250 µg/mL (≈ 699 µM) | 250 µg/mL (≈ 699 µM) | 250 µg/mL (≈ 699 µM) | 250 µg/mL (≈ 699 µM) | 250 µg/mL (≈ 699 µM) | Fc1ccc(/C=N/NC(=S)Nc2cccc3ccccc23)cc1Cl | 500 µg/mL (≈ 1400 µM) | 51.3 µg/mL (≈ 143 µM)
7 | 250 µg/mL (≈ 602 µM) | 250 µg/mL (≈ 602 µM) | 250 µg/mL (≈ 602 µM) | 250 µg/mL (≈ 602 µM) | 250 µg/mL (≈ 602 µM) | 250 µg/mL (≈ 602 µM) | 250 µg/mL (≈ 602 µM) | 250 µg/mL (≈ 602 µM) | 250 µg/mL (≈ 602 µM) | 250 µg/mL (≈ 602 µM) | Fc1ccc(Oc2ccc(/C=N/NC(=S)Nc3cccc4ccccc34)cc2)cc1 | > 500 µg/mL | 62.5 µg/mL (≈ 150 µM)
8 | 250 µg/mL (≈ 732 µM) | 250 µg/mL (≈ 732 µM) | 250 µg/mL (≈ 732 µM) | 250 µg/mL (≈ 732 µM) | 250 µg/mL (≈ 732 µM) | 250 µg/mL (≈ 732 µM) | 250 µg/mL (≈ 732 µM) | 250 µg/mL (≈ 732 µM) | 250 µg/mL (≈ 732 µM) | 250 µg/mL (≈ 732 µM) | Fc1cccc(F)c1/C=N/NC(=S)Nc1cccc2ccccc12 | 31.2 µg/mL (≈ 91.5 µM) | 500 µg/mL (≈ 1460 µM)

Row | SMILES | MIC [1] | MIC [2] | MIC [3] | MIC [4] | MIC [5] | MIC [7] | MIC [8] | MIC [9] | MIC [10] | MIC [11] | IC50 [6] | IC50 [12]
9 | CC(=O)N1CCN(c2ccc(OCC3COC(Cn4ccnc4)(c4ccc(Cl)cc4Cl)O3)cc2)CC1 (stereo unspecified) [KETOCONAZOLE] | 62.5 µg/mL (≈ 118 µM) | 15.6 µg/mL (≈ 29.4 µM) | 62.5 µg/mL (≈ 118 µM) | 7.81 µg/mL (≈ 14.7 µM) | 125 µg/mL (≈ 235 µM) | 250 µg/mL (≈ 470 µM) | 31.2 µg/mL (≈ 58.8 µM) | 62.5 µg/mL (≈ 118 µM) | 125 µg/mL (≈ 235 µM) | 15.6 µg/mL (≈ 29.4 µM) |  | 

From ChEMBL document CHEMBL3758081, “Synthesis and biological evaluation of new naphthalene substituted thiosemicarbazone derivatives as potent antifungal and anticancer agents” (Eur J Med Chem, 2016)
